Tests used:
3T3 mouse fibroblast = assay: Toxicity / cell viability in 3T3 mouse fibroblasts; assay type: cell-based
CUG repeats = assay: Binding to CUG repeats
Protocol: (§1) Isothermal titration calorimetry measurements were performed at 25° C. on a MicroCal VP-ITC (MicroCal, Inc., Northampton, Mass.). A standard experiment consisted of titrating 10 μL of a 500 μM ligand from a 250 μL syringe (rotating at 300 rpm) into a sample cell containing 1.42 mL of a 20 μM DNA/RNA solution. The duration of the injection was set to 24 s, and the delay between injections was 300 s. The initial delay prior to the first injection was 60 s. To derive the heat associated with each injection, the area under each isotherm (microcalories per second versus seconds) was determined by integration by the graphing program Origin 5.0 (MicroCal, Inc. Northampton, Mass.). […] In many cases, additional sites are not detected by Job plot analysis and likely represent low-affinity sites. […]
(§2) A cell sample (250 μL) of 0.2 μM a compound of interest (in 20 mM MOPS pH 7.0, 300 mM NaCl) was excited at 310 nm (excitation slit of 4 nm) and emission recorded between 470-530 nm (emission slit of 8 nm) monitoring the maximum at 495 nm. […] The sample was then allowed to equilibrate for 15 min and the fluorescence emission recorded. The decrease in fluorescence with increased DNA/RNA was monitored until the binding sites became saturated and the fluorescence change was no longer evident. […]

MBNL1-CUG foci = assay: Confocal microscopy of MBNL1-CUG foci in HeLa cells transfected with GFP-MBNL1 and DMPK (CUG)960; assay type: cell-based; conditions: HeLa cells containing (CUG)960, confocal microscopy, preliminary results
From the text: In various embodiments, the compounds described herein can form MBNL1-CUG foci inside the nucleus for cells containing expanded CUG repeats.

MBNL1N-(CUG)12 RNA = biological target: T1, MBNL1N-(CUG)12 RNA (Homo sapiens, UniProt Q9NR56); assay: Inhibition of MBNL1N binding to (CUG)12 RNA in the presence of competitor tRNA; assay type: biochemical
T1 construct: An expression vector for MBNL1N (1-272 aminoacids) was obtained from Maurice S. Swanson; hexahis; made in house
T1 sequence (Q9NR56 1-272): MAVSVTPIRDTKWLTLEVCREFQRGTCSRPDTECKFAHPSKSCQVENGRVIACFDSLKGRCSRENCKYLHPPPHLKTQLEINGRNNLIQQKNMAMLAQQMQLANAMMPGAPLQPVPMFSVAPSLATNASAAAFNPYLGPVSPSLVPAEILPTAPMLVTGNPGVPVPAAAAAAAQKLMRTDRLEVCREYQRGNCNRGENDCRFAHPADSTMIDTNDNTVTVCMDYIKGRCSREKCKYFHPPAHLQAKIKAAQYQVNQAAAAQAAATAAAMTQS
Protocol: (§3) RNA was labeled with [γ-^32P]ATP using T4 polynucleotide kinase (New England Biolabs). Labeled RNA (5 μL, 0.5 nM) was heated at 95° C. for 2 min and then placed on ice for 10 min and diluted to 125 μL in RNA storage buffer (66 mM NaCl, 6.7 mM MgCl2, and 27 mM Tris.HCl (pH 7.5). If required for the experiment, tRNA was added to the RNA solution to give a final concentration of approximately 8 μM. The protein (MBNL1N) was serially diluted in binding buffer (175 mM NaCl, 5 mM MgCl2, 20 mM Tris.HCl (pH 7.5), 1.25 mM BME, 12.5% glycerol, 2 mg/mL BSA, and 0.1 mg/mL heparin), and 5 μL of protein solution was added to 5 μL of RNA solution (Warf and Berglund, RNA, 2007, 13, 2238-2251). The reaction mixture was incubated at room temperature for 25 min and loaded onto a 6% polyacrylamide gel (80:1) at 4° C. The gels were run for 1 hour at 360V in 22.5 mM Tris-borate buffer (pH 8). Gels were visualized on a Molecular Dynamics Storm phosphorimager. The apparent Kd values were obtained by fitting fraction RNA bound versus protein concentration using the following equation: fraction bound=1/(1+(Kd/[P]T)). All binding measurements were performed with a greater than 10-fold excess of protein over RNA in each binding reaction used to determine the Kd so that [P] would be approximately equal to [P]total. […]

Water solubility = assay type: physicochemical
MBNL1N-(CUG)4 RNA = biological target: T2, MBNL1N-(CUG)4 RNA (Homo sapiens, UniProt Q9NR56); assay: Inhibition of MBNL1N binding to (CUG)4 RNA in the presence of competitor tRNA; assay type: biochemical
T2 construct: An expression vector for MBNL1N (1-272 aminoacids) was obtained from Maurice S. Swanson; hexahis; made in house
T2 sequence (Q9NR56 1-272): T1 sequence (Q9NR56 1-272)
Protocol: as §3

MBNL1-CUG interaction = biological target: T3, MBNL1-CUG interaction (Homo sapiens, UniProt Q9NR56); assay: Electrophoretic mobility shift assay (EMSA) of inhibition of MBNL1-CUG interaction; assay type: biochemical
T3 construct: An expression vector for MBNL1N (1-272 aminoacids) was obtained from Maurice S. Swanson; hexahis; made in house
T3 sequence (Q9NR56 1-272): T1 sequence (Q9NR56 1-272)
Protocol: RNA was labeled with [γ-^32P]ATP using T4 polynucleotide kinase (New England Biolabs). Labeled RNA (5 μL, 0.5 nM) was heated at 95° C. for 2 min and then placed on ice for 10 min and diluted to 125 μL in RNA storage buffer (66 mM NaCl, 6.7 mM MgCl2, and 27 mM Tris.HCl (pH 7.5). If required for the experiment, tRNA was added to the RNA solution to give a final concentration of approximately 8 μM. The protein (MBNL1N) was serially diluted in binding buffer (175 mM NaCl, 5 mM MgCl2, 20 mM Tris.HCl (pH 7.5), 1.25 mM BME, 12.5% glycerol, 2 mg/mL BSA, and 0.1 mg/mL heparin), and 5 μL of protein solution was added to 5 μL of RNA solution (Warf and Berglund, RNA, 2007, 13, 2238-2251). The reaction mixture was incubated at room temperature for 25 min and loaded onto a 6% polyacrylamide gel (80:1) at 4° C. The gels were run for 1 hour at 360V in 22.5 mM Tris-borate buffer (pH 8). Gels were visualized on a Molecular Dynamics Storm phosphorimager. The apparent Kd values were obtained by fitting fraction RNA bound versus protein concentration using the following equation: fraction bound=1/(1+(Kd/[P]T)). All binding measurements were performed with a greater than 10-fold excess of protein over RNA in each binding reaction used to determine the Kd so that [P] would be approximately equal to [P]total.
The inhibition of the MBNL1N-RNA complex was investigated using the above procedure except that the small molecule was added to the RNA-protein complex after 25 min of incubation. The reaction mixture was incubated for an additional 10-15 minutes at room temperature (˜23° C.). The inhibition assays were performed in the presence of 10% DMSO. To determine IC50 values, the free RNA versus small molecule concentration was fit to the equation: B=ΔB exp((−0.69/IC50)C)+Bf. B is the volume of the free RNA band in the gel, ΔB is the difference between the volumes of the free RNA bands at the lowest and highest concentrations of small molecule (Bi−Bf), C is the concentration of the small molecule, and IC50 is the concentration of small molecule at which B=(½ΔB)+Bf. […]

CTG repeats = assay: Binding to CTG repeats
Protocol: as §1, §2

mice = assay: Tolerability in mice, intraperitoneal injection; assay type: in vivo; conditions: 100 mg/kg
Protocol: (§4) The compounds are found to be non-toxic among different cell types tested, including DM1 patient cells and 3T3 mouse fibroblasts. In one experiment, three mice each were evaluated at 5, 10, 20 50, and 100 mg/kg of compound 1, given by intraperitoneal injection.

[1] = Tolerability in mice, intraperitoneal injection; assay type: in vivo; conditions: mouse, in vivo, ip, mice, 5-100 mg/kg tested, read-out: maximum tolerated dose
Protocol: as §4

**Q.** With N=C(NCCCCNc1nc(N)nc(N)n1)c1ccc(C(=N)NCCCCNc2nc(N)nc(N)n2)cc1 [Compound 1, N^1,N^4-bis(4-((4,6-diamino-1,3,5-triazin-2-yl)amino)butyl)terephthalimidamide] as the compound, how does the “toxicity towards mouse fibroblasts” value (3T3 mouse fibroblast) read?
**A.** Its value is “non-toxic”.

**Q.** And the cell viability (3T3 mouse fibroblast; 100 μM, 3-day incubation)?
**A.** The cell viability was 100%.

**Q.** What about the “affinity for CUG repeats” value (CUG repeats) of the same compound?
**A.** Its value is “high nanomolar affinity”.

**Q.** What about the “disruption of MBNL1-CUG foci in the nucleus” value (MBNL1-CUG foci) of the same compound?
**A.** Its value is “significant disruption of foci”.

**Q.** What about the “Ki for inhibition of MBNL1N binding to (CUG)12 RNA” value (MBNL1N-(CUG)12 RNA) of the same compound?
**A.** Its value is “low micromolar”.

**Q.** What about the water solubility (Water solubility) of the same compound?
**A.** The water solubility was “improved water solubility”.

**Q.** And the “Ki for inhibition of MBNL1N binding to (CUG)4 RNA” value (MBNL1N-(CUG)4 RNA)?
**A.** Its value is “low micromolar”.

**Q.** What about the IC50 (MBNL1-CUG interaction; EMSA) of the same compound?
**A.** The IC50 was 11 µM.

**Q.** And the Ki (MBNL1-CUG interaction; EMSA, read-out: inhibition constant (Ki) for MBNL1-CUG interaction)?
**A.** The Ki was 177 nM.

**Q.** And the “inhibitory ability in EMSA screen compared to other inhibitor compounds (such as compound 5)” value (MBNL1-CUG interaction; same concentration (100 μM))?
**A.** The value was “significantly improved inhibitory ability”.

**Q.** What about the “affinity for CTG repeats” value (CTG repeats) of the same compound?
**A.** The value was “high nanomolar affinity”.

**Q.** And the mice exhibiting neurotoxicity (mice)?
**A.** Its mice exhibiting neurotoxicity is “two of three”.

**Q.** What about the MTD [1] of the same compound?
**A.** The MTD was 50 mg/kg.

Source: patent US9382215B2, “Therapeutic methods and agents for treating myotonic dystrophy” (The Board of Trustees of the University of Illinois, priority 2012, dated 2016)
